How the values were obtained:
MCF7 [1] = assay: Antiproliferative activity against human MCF7 cells; assay type: functional, cell-based
MV4-11 = assay: Antiproliferative activity against human MV4-11 cells after 120 hrs by TopCount scintillation analysis; assay type: functional, cell-based; conditions: MV4-11, 120 h
Endoplasmin [2] = biological target: T1, Endoplasmin (Homo sapiens, UniProt P14625); assay: Displacement of FITC-geldanamycin from GRP94 (unknown origin) after 24 hrs by fluorescence polarization assay
T1 sequence (P14625 whole entry): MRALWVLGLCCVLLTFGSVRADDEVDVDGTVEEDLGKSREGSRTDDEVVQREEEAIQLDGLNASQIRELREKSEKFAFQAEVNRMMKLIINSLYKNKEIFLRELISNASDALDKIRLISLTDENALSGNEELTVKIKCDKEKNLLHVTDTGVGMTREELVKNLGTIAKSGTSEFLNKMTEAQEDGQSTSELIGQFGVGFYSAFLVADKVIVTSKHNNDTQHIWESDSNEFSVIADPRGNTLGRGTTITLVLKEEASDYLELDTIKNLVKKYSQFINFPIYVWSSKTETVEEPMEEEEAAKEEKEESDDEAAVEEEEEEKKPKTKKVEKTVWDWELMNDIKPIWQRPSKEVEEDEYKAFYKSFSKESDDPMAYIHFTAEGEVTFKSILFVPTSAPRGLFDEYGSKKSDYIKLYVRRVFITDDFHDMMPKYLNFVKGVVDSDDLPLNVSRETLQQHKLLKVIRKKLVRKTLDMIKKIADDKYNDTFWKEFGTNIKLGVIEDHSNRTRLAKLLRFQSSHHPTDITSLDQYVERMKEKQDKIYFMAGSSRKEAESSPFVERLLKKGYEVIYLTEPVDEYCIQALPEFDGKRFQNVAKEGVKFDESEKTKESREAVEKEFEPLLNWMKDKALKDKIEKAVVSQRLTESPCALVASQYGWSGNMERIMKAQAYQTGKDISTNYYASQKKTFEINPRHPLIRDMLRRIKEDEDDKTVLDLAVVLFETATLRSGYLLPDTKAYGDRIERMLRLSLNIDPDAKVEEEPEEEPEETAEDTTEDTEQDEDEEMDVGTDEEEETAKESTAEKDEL

PANC-1 [3] = assay: Antiproliferative activity against human PANC1 cells after 24 hrs by MTS assay; assay type: functional, cell-based; conditions: PANC-1, 24 h
PANC-1 [4] = assay: Antitumor activity against human PANC1 cells xenografted in athymic mouse at 3 mg/kg, ip administered for 2 continuous days followed by 1 injection per 3 days and measured twice per week relative to control; assay type: functional; conditions: PANC-1, ip, 72 h, read-out: GI
[5] = Binding affinity to His6-tagged TPR2A (unknown origin) assessed as reduction in fluorescein-labeled C-terminal Hsp90/TRP2A protein-protein interaction incubated for 2 hrs by fluorescence polarization assay; design: species or system Homo sapiens
MDA-MB-231 = assay: Antiproliferative activity against human MDA-MB-231 cells; assay type: functional, cell-based
[6] = Antiproliferative activity against rat KNRK5.2 cells; assay type: functional, cell-based
[7] = biological target: T2, Heat shock protein HSP 90-alpha (Homo sapiens, UniProt P07900); assay: Inhibition of FITC-geldanamycin binding to recombinant human HSP90alpha expressed in Escherichia coli preincubated for 2 hrs followed by Geldanamycin-FITC addition and measured after 5 hrs by fluorescence polarization competitive binding assay
Endoplasmin [8] = biological target: T1, Endoplasmin; assay: Inhibition of FITC-geldanamycin binding to N-terminal His-tagged recombinant human GRP94 expressed in Escherichia coli preincubated for 2 hrs followed by Geldanamycin-FITC addition and measured after 5 hrs by fluorescence polarization competitive binding assay
[9] = biological target: T3, Heat shock protein 75 kDa, mitochondrial (Homo sapiens, UniProt Q12931); assay: Inhibition of FITC-geldanamycin binding to N-terminal His-tagged recombinant human TRAP1 (60 to 704 residues) expressed in Escherichia coli preincubated for 2 hrs followed by Geldanamycin-FITC addition and measured after 5 hrs by fluorescence polarization competitive binding assay
T3 sequence (Q12931 whole entry): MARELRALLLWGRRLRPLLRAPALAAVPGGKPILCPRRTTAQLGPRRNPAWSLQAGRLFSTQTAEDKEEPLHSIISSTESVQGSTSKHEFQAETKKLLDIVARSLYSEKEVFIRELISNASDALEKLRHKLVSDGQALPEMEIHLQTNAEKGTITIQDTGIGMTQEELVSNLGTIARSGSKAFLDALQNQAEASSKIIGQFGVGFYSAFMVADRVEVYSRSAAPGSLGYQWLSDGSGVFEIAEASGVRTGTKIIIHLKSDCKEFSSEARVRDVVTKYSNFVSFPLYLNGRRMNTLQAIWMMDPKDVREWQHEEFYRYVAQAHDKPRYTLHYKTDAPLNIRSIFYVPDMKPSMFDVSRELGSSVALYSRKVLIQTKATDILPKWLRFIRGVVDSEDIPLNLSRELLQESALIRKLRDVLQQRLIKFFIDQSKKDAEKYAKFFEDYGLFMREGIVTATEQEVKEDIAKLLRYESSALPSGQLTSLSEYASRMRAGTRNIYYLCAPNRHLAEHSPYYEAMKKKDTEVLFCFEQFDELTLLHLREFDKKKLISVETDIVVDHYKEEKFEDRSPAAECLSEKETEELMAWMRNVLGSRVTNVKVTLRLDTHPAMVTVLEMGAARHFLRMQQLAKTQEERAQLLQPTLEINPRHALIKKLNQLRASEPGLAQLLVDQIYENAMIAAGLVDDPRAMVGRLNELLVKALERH

[10] = biological target: Heat shock protein HSP 90-beta (Homo sapiens, UniProt P08238); assay: Inhibition of FITC-geldanamycin binding to recombinant human HSP90beta expressed in Escherichia coli preincubated for 2 hrs followed by Geldanamycin-FITC addition and measured after 5 hrs by fluorescence polarization competitive binding assay
Chain of Heat shock protein HSP 90-beta (P08238 whole entry): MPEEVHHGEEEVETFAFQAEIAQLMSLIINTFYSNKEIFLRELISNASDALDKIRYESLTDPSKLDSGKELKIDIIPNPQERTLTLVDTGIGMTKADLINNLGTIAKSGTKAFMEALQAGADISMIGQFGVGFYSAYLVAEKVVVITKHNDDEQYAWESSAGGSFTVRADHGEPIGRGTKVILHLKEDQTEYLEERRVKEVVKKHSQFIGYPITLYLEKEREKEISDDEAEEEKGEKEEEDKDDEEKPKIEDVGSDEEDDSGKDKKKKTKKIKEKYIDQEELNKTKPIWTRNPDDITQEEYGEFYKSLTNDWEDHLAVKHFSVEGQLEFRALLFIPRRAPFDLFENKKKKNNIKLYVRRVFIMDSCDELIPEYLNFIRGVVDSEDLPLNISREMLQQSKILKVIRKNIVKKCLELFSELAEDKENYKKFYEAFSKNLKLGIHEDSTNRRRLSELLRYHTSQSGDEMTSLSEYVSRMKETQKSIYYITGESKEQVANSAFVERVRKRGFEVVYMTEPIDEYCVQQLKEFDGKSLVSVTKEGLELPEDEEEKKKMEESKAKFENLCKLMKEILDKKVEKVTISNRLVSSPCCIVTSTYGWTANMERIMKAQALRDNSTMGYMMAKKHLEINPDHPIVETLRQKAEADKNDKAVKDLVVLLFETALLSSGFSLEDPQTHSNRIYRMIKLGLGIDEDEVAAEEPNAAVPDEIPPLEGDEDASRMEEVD

MCF7 [11] = assay: Antiproliferative activity against human MCF7 cells after 72 hrs by MTS/PMS assay; assay type: functional, cell-based; conditions: MCF7, 72 h
NCI-H1299 = assay: Antiproliferative activity against human NCI-H1299 cells incubated for 2 days followed by medium replacement by MTT assay; assay type: functional, cell-based; conditions: NCI-H1299, 48 h
[12] = biological target: T2, Heat shock protein HSP 90-alpha; assay: Inhibition of His6-tagged N-terminal human HSP90alpha expressed in Escherichia coli BL21 Lys cells preincubated for 10 mins followed by SA-APC and biotin-GM addition and measured after 6 hrs by TR-FRET assay
PANC-1 [13] = assay: Antiproliferative activity against human PANC1 cells after 48 hrs by MTS assay; assay type: functional, cell-based; conditions: PANC-1, 48 h
MIA PaCa-2 = assay: Antiproliferative activity against human MIAPaCa2 cells after 48 hrs by MTS assay; assay type: functional, cell-based; conditions: MIA PaCa-2, 48 h
BXPC-3 = assay: Antiproliferative activity against human BxPC3 cells after 48 hrs by MTS assay; assay type: functional, cell-based; conditions: BXPC-3, 48 h
[14] = Binding affinity to His6-tagged TPR2A (unknown origin) by isothermal titration calorimetry; design: species or system Homo sapiens

Q: For `CO[C@@H]1[C@@H](OC(N)=O)[C@@H](O)[C@H](Oc2ccc3c(O)c(NC(=O)c4ccc(O)c(CC=C(C)C)c4)c(=O)oc3c2C)OC1(C)C` [NOVOBIOCIN], which IC50 (MCF7 [1]) is on record?
A: 256 µM

Q: With `CN(C)c1cc2c(cc1Sc1nc3c(N)nccc3n1CCNCC(C)(C)C)OCO2` [CUDC-305] as the molecule, how does the IC50 (MV4-11) read?
A: 0.1 µM

Q: Which Kd (Endoplasmin [2]) does the source give for `CC(C)c1cc(C(=O)N2Cc3ccccc3C2)c(O)c2cnoc12` here?
A: 8.48 µM

Q: For `CC1=C(O)C(=O)C=C2C1=CC=C1[C@@]2(C)CC[C@@]2(C)[C@@H]3C[C@](C)(C(=O)O)CC[C@]3(C)CC[C@]12C` [CELASTROL], which IC50 (PANC-1 [3]) is on record?
A: 3 µM

Q: What about the inhibition in vivo at 3 mg/kg (PANC-1 [4]) of the same molecule?
A: 80%

Q: With `Cn1nc(Cc2ccccc2)nc2c(=O)n(C)c(=O)nc1-2` as the molecule, how does the Kd [5] read?
A: 0.566 µM

Q: With `CCn1nc(-c2cccs2)nc2c(=O)n(C)c(=O)nc1-2` as the molecule, how does the Kd [5] read?
A: 0.308 µM

Q: Which Kd [5] does the source give for `CCCc1nc2c(=O)n(C)c(=O)nc-2n(C)n1` here?
A: 0.202 µM

Q: And the IC50 (MDA-MB-231)?
A: 1.75 µM

Q: For `C[C@@H]1C[C@H]2O[C@@H]2\C=C/C=C/C(=N\O)Cc2c(Cl)c(O)cc(O)c2C(=O)O1`, which IC50 [6] is on record?
A: 0.039 µM

Q: Which Ki [7] does the source give for `CCc1cc(C(N)=O)ccc1-n1nc(C(C)C)c2c(-n3cnc(-c4cnn(C)c4)c3)ccnc21` [TAS-116] here?
A: 0.0347 µM

Q: What about the Ki (Endoplasmin [8]) of the same molecule?
A: > 50 µM

Q: What about the Ki [9] of the same molecule?
A: > 50 µM

Q: And the Ki [10]?
A: 0.0213 µM

Q: For `CC(C)NCCCn1c(Sc2cc3c(cc2I)OCO3)nc2c(N)ncnc21` [PU-H71], which IC50 (MCF7 [1]) is on record?
A: 0.09 µM

Q: For `Cn1nc(-c2ccccc2)nc2c(=O)n(C)c(=O)nc1-2`, which Kd [5] is on record?
A: 1.04 µM

Q: For `CC(C)=CCc1c(O)cc2occ(-c3ccc(Cl)c(Cl)c3)c(=O)c2c1O`, which IC50 (MCF7 [11]) is on record?
A: 7.3 µM

Q: Which IC50 (NCI-H1299) does the source give for `COc1ccc(CC(=O)c2ccc3c(c2OC)C=CC(C)(C)O3)cc1OC` here?
A: 0.14 µM

Q: For `CCn1nc(-c2ccccc2)nc2c(=O)n(C)c(=O)nc1-2`, which Kd [5] is on record?
A: 0.928 µM

Q: With `COc1c(C)cnc(Cn2cnc3c(Cl)nc(N)nc32)c1C` [BIIB021] as the molecule, how does the IC50 (MCF7 [1]) read?
A: 0.31 µM

Q: Which IC50 [12] does the source give for `COc1cccc(C(=O)NC2CC3CCC(C2)N3c2ccc(C(N)=O)cn2)c1C` (stereo unspecified) here?
A: 0.641 µM

Q: Which results are given for `CC1=C(CO)C(=O)O[C@@H]([C@@H](C)[C@H]2CC[C@H]3[C@@H]4C[C@H]5O[C@]56[C@@H](O)C=CC(=O)[C@]6(C)[C@H]4CC[C@]23C)C1` [WITHAFERIN A]?
A: IC50 (PANC-1 [13]): 1.24 µM; IC50 (MIA PaCa-2): 2.93 µM; IC50 (BXPC-3): 2.78 µM

Q: For `Cc1nc2c(=O)n(C)c(=O)nc-2n(C)n1`, which Kd [5] is on record?
A: 0.365 µM

Q: And the Kd [14]?
A: 16 µM

— ChEMBL document CHEMBL4402542, “Heat Shock Protein 90 Inhibitors: An Update on Achievements, Challenges, and Future Directions” (J Med Chem, 2020)
